This note sets out measurements from article PMC5853648 (Biochemistry, 2017).

Assay [1] deals with T1, CidC (Staphylococcus aureus, UniProt Q6PST7).
T1 sequence (Q6PST7 2-579): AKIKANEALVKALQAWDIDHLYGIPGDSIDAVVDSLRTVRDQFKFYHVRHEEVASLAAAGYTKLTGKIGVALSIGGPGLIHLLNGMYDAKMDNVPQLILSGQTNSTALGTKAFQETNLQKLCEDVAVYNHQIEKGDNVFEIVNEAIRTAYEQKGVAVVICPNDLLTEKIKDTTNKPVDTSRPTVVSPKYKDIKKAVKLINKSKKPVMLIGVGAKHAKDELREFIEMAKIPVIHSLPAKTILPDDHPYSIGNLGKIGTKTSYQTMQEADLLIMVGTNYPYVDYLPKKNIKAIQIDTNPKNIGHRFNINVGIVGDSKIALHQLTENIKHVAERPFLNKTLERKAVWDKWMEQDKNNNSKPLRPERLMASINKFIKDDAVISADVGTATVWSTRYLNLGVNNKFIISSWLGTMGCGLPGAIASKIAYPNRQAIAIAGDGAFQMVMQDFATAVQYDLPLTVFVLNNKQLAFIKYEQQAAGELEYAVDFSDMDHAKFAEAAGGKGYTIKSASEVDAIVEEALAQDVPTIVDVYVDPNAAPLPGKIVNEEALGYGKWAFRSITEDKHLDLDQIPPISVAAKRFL
Kind of assay: tryptophan fluorescence quenching titration. It is filed as binding.

Assay [2] concerns the target T1, CidC. Kind of assay: ferricyanide reduction assay, absorbance […] nm. It is filed as biochemical.

`Cc1ncc(C[n+]2csc(CCO[P@](=O)(O)OP(=O)(O)O)c2C)c(N)n1` [TPP]: the Kd in assay [1] stood at 0.0003 mM.
Turning to `O=C(O)CC(O)(CC(=O)O)C(=O)O` [citrate], in assay [2], half-maximal inhibition (IC50) was put at 10 mM.
